For 20 compounds, IC50 results are on record in patent publication US9493502B2, “Ribofuranosyl purine compounds, methods for preparing the same and use thereof” (Beijing KBD Pharmaceuticals Co., Ltd., priority 2011, dated 2016).

Where only a bound is given, the exact number is not on record here.

The test system of experiment [1] is ADP-induced platelet aggregation. Kind of experiment: in vitro anti-platelet aggregation induced by ADP (platelet-rich plasma, aggregometer). It is filed as cell-based. The note with it: Homo sapiens; platelet-rich plasma of healthy volunteers, inductive agent ADP (10 uM), 37° C. The text has this:
(§1) The inventor conducted the anti-platelet aggregation activity screening for the compounds of the present invention, carried out the anti-platelet aggregation test by using the blood platelet which was closed to human physiological state and was not washed with water, and conducted the activity test of the in vitro anti-platelet aggregation induced by ADP, and also the activity test of the in vitro anti-platelet aggregation induced by AA (arachidonic acid) for some compounds. The present invention firstly discloses the activity test of the in vitro anti-platelet aggregation induced by AA conducted with said type of compounds.
(§2) The anti-platelet aggregation test of the compounds was conducted by the aggregometer (Model 400VS, Chrono-Log, Haverston, Pa.) from Chrono-Log Corp. ADP, AA (arachidonic acid), DMSO and trisodium citrate were purchased from Sigama.
(§3) The fasting venous blood of the subjects was collected, and placed into a 50 mL sampling tube containing 3.8% sodium citrate, and mixed homogeneously in a ratio of 1:9 (v/v) for anticoagulation, and centrifugalized at 300 rpm/min for 20 min.
(§4) The supernatant was taken to obtain platelet-rich blood plasma (PRP). The residual blood was then centrifugalized at 900 rpm/min for 10 min, and the supernatant fluid was taken to obtain platelet-poverty blood plasma (PPP). The analysis of platelet aggregation was conducted by using the aggregometer (Chrono-Log Corp.), wherein PRP and PPP were respectively added to two turbidimetric tubes. In the aggregometer, platelet-poverty blood plasma (PPP) was used as the control group. DMSO was used as the negative control. The turbidimetric tubes were incubated at 37° C. for 3 min. The PRP was stirred with a stirring rod at 900 rpm/min for 10-20 s, and the inductive agent ADP (10 uM) or AA (0.5 mM) was added to PRP, and start to record the aggregated wave patterns. The chart speed of the recorder (Model 707, Chrono-Log, Haverston, Pa., USA) was set up to be 1 cm min^−1, and the aggregation reaction was recorded for not less than 3 min. Finally, the apparatus automatically delineated the aggregation curve and calculated the results, i.e. maximum platelet aggregation rate. When the platelet aggregation was lower than 50% of the control group, the IC50 of the compound was calculated.

The subject of experiment [2] is AA (arachidonic acid)-induced platelet aggregation. Kind of experiment: in vitro anti-platelet aggregation induced by AA (arachidonic acid) (platelet-rich plasma, aggregometer). The format is cell-based. The note with it: Homo sapiens; platelet-rich plasma of healthy volunteers, inductive agent AA (0.5 mM), 37° C.
Text: as §1, §2, §3, §4

Regarding `CCCCCCNc1nc(SCCC)nc2c1ncn2[C@@H]1O[C@H](CO)[C@@H](O)[C@H]1O` [Example 8, 2-propylthio-6-n-hexylamino-9-β-D-ribofuranosyl purine], the IC50 (usually the point on the concentration scale where inhibition reaches its midpoint) in experiment [1] is 102 µM.

`CCSc1nc(NC2CCCCC2)c2ncn([C@@H]3O[C@H](CO)[C@@H](O)[C@H]3O)c2n1` [Example 9, 2-ethylthio-6-cyclohexylamino-9-β-D-ribofuranosyl purine] showed an IC50 in experiment [1] of 104 µM.

For the compound `CCCSc1nc(NC2CCCCC2)c2ncn([C@@H]3O[C@H](CO)[C@@H](O)[C@H]3O)c2n1` [Example 10, 2-propylthio-6-cyclohexylamino-9-β-D-ribofuranosyl purine], in experiment [1], it took 151 µM to reach half-maximal inhibition (IC50).

As for `CC(C)Sc1nc(NC2CCCCC2)c2ncn([C@@H]3O[C@H](CO)[C@@H](O)[C@H]3O)c2n1` [Example 11, 2-isopropylthio-6-cyclohexylamino-9-β-D-ribofuranosyl purine], inhibition in experiment [1] was half-maximal at 187 µM (IC50).

Compound `CCCCSc1nc(NC2CCCCC2)c2ncn([C@@H]3O[C@H](CO)[C@@H](O)[C@H]3O)c2n1` [Example 12, 2-butylthio-6-cyclohexylamino-9-β-D-ribofuranosyl purine] returned an IC50 in experiment [1] of 83 µM.

The compound `CCSc1nc(NCc2ccccc2)c2ncn([C@@H]3O[C@H](CO)[C@@H](O)[C@H]3O)c2n1` [Example 13, 2-ethylthio-6-benzylamino-9-β-D-ribofuranosyl purine] had an IC50 in experiment [1] of 176 µM.

`CCCSc1nc(NCc2ccccc2)c2ncn([C@@H]3O[C@H](CO)[C@@H](O)[C@H]3O)c2n1` [Example 14, 2-propylthio-6-benzylamino-9-β-D-ribofuranosyl purine] displayed a half-maximal inhibitory concentration (IC50) in experiment [1] of 216 µM.

In turn, `CCCCSc1nc(NCc2ccccc2)c2ncn([C@@H]3O[C@H](CO)[C@@H](O)[C@H]3O)c2n1` [Example 15, 2-butylthio-6-benzylamino-9-β-D-ribofuranosyl purine] returned a concentration for half-maximal inhibition (IC50) in experiment [1] of 202 µM.

In the case of `CCSc1nc(NC(C)c2ccccc2)c2ncn([C@@H]3O[C@H](CO)[C@@H](O)[C@H]3O)c2n1` (stereo partly drawn) [Example 16, 2-ethylthio-6-(1-phenylethyl)amino-9-β-D-ribofuranosyl purine], half-maximal inhibition in experiment [1] (IC50) was put at 197 µM.

Turning to `CCCSc1nc(NCc2ccc(OC)cc2)c2ncn([C@@H]3O[C@H](CO)[C@@H](O)[C@H]3O)c2n1` [Example 17, 2-propylthio-6-([4-methoxylbenzyl]amino)-9-β-D-ribofuranosyl purine], inhibition in experiment [1] was half-maximal at 181 µM (IC50).

Regarding `CSc1nc(NCCc2ccccc2)c2ncn([C@@H]3O[C@H](CO)[C@@H](O)[C@H]3O)c2n1` [Example 18, 2-methylthio-6-phenylethylamino-9-β-D-ribofuranosyl purine], the IC50 turned out to be 36 µM in experiment [1] and 3 µM in experiment [2].

With `CCSc1nc(NCCc2ccccc2)c2ncn([C@@H]3O[C@H](CO)[C@@H](O)[C@H]3O)c2n1` [Example 19, 2-ethylthio-6-phenylethylamino-9-β-D-ribofuranosyl purine], the IC50 in experiment [1] amounted to 29 µM; in experiment [2] it was 30 µM.

For the compound `CCCSc1nc(NCCc2ccccc2)c2ncn([C@@H]3O[C@H](CO)[C@@H](O)[C@H]3O)c2n1` [Example 20, 2-propylthio-6-phenylethylamino-9-β-D-ribofuranosyl purine], the figures for the half-maximal inhibitory concentration (IC50) in experiment [1] and in experiment [2] were 52 µM and 44 µM, respectively.

For `CCCCSc1nc(NCCc2ccccc2)c2ncn([C@@H]3O[C@H](CO)[C@@H](O)[C@H]3O)c2n1` [Example 21, 2-butylthio-6-phenylethylamino-9-β-D-ribofuranosyl purine], the IC50 in experiment [1] is 59 µM; in experiment [2], > 300 µM.

As to `COc1ccc(CCNc2nc(SC)nc3c2ncn3[C@@H]2O[C@H](CO)[C@@H](O)[C@H]2O)cc1` [Example 22, 2-methylthio-6-([4-methoxylphenylethyl]-amino)-9-β-D-ribofuranosyl purine], 153 µM corresponded to half-maximal inhibition in experiment [1] (IC50).

In turn, `CCSc1nc(NCCc2ccc(OC)cc2)c2ncn([C@@H]3O[C@H](CO)[C@@H](O)[C@H]3O)c2n1` [Example 23, 2-ethylthio-6-([4-methoxylphenylethyl]amino)-9-β-D-ribofuranosyl purine] gave an IC50 in experiment [1] of 89 µM.

In the case of `CCCSc1nc(NCCc2ccc(OC)cc2)c2ncn([C@@H]3O[C@H](CO)[C@@H](O)[C@H]3O)c2n1` [Example 24, 2-propylthio-6-([4-methoxylphenylethyl]amino)-9-β-D-ribofuranosyl purine], the IC50 in experiment [1] came to 267 µM.

In experiment [1], `CCCCSc1nc(NCCc2ccc(OC)cc2)c2ncn([C@@H]3O[C@H](CO)[C@@H](O)[C@H]3O)c2n1` [Example 25, 2-butylthio-6-([4-methoxylphenylethyl]amino)-9-β-D-ribofuranosyl purine] gave an IC50 of 93 µM.

`CCSc1nc(NCCc2cccc(OC)c2)c2ncn([C@@H]3O[C@H](CO)[C@@H](O)[C@H]3O)c2n1` [Example 26, 2-ethylthio-6-([3-methoxylphenylethyl]amino)-9-β-D-ribofuranosyl purine]: the results for the IC50 in experiment [1] and in experiment [2] were 38 µM and > 300 µM, respectively.

In experiment [1], `CCCSc1nc(NCCc2cccc(OC)c2)c2ncn([C@@H]3O[C@H](CO)[C@@H](O)[C@H]3O)c2n1` [Example 27, 2-propylthio-6-([3-methoxylphenylethyl]amino)-9-β-D-ribofuranosyl purine] showed an IC50 of 69 µM.
